Experimental data reported in US20220194935A1, “PHENETHYL SUBSTITUTED IMIDAZO[4,5-C]QUINOLINE COMPOUNDS WITH AN N-1 BRANCHED GROUP” (3M INNOVATIVE PROPERTIES COMPANY, priority 2019, published 2022).

Test system: Human peripheral blood mononuclear cells (PBMC)
Assay: Cytokine Induction in Human Cells (PBMC), minimum effective concentration
Assay type: cell-based
Conditions: 21-24 hours, lowest concentration giving at least 2× negative control, tested 0.01-30 micromolar; for MEC to Induce Cytokine, IFN-alpha: ELISA; for MEC to Induce Cytokine, IFN-gamma / MEC to Induce Cytokine, TNF-alpha: multiplex bead assay
Method: Whole blood was obtained from healthy human donors and collected by venipuncture into vacutainer tubes or syringes containing ethylene diamine tetraacetic acid (EDTA). Human peripheral blood mononuclear cells (PBMC) were purified from the whole blood by density gradient centrifugation. Histopaque 1077 (15 mL, Sigma, St. Louis, Mo.) was transferred to 6×50 mL sterile polypropylene conical tubes. The Histopaque was overlayed with 15-25 mL of blood diluted 1:2 in Hank's Balanced Salts Solution (HBSS) (Gibco, Life Technologies, Grand Island, N.Y.). The tubes were then centrifuged at 1370 revolutions per minute (rpm) for 30 minutes at 20° C., with no brake (400×g, GH 3.8A Rotor).
The interface (buffy coat) containing the PBMC was collected and placed in a new sterile 50 mL conical polypropylene centrifuge tube. The PBMC were mixed with an equal volume of HBSS (about 20 mL from the interface and about 20 mL of HBSS), and then centrifuged at 1090 rpm, 10 minutes, 20° C., with brake (270×g, GH 3.8A Rotor). After completing centrifugation, the cells were resuspended in 2-3mL ACK Red blood cell lysis buffer (ammonium chloride potassium solution, Gibco, Life Technologies) and incubated for 2-5 minutes at 20° C. Next, HBSS (40 mL) was added to the cells, and the sample was centrifuged at 270×g for 10 minutes at 20° C. The supernatant was decanted, and the cell pellet was resuspended in 5 mL AIM V Medium (Gibco, Life Technologies). Cell aggregates and debris were removed by filtering the cell solution through a BD Falcon 70 micron nylon cell strainer (BD Biosciences, San Jose, Calif.).
The number of viable cells was determined by counting with a Miltenyi FACS instrument (Miltenyi Biotec Inc., San Diego, Calif.) or by using a hemacytometer. For determining cell viability with a hemacytometer, the cells were diluted 1/10 in 0.4% trypan blue and HBSS (specifically, 50 microliter of trypan blue +40 microliter of HBSS +10 microliter of cell solution were added to a microfuge tube and mixed). Ten microliters of the diluted cells were then applied to the hemacytometer, and the number of viable PBMC were determined by microscopy.
The PBMC sample was then resuspended in 96-well plates at a concentration of 8×10^5 cells/well in 0.1 mL of AIM-V medium. Each compound was solubilized in dimethyl sulfoxide (DMSO) to create a 3 mM stock solution. The stock solution was then further diluted with AIM-V medium to prepare the serial dilutions. The diluted compound (100 microliters) was then transferred to the PBMCs to produce testing sets with final compound concentrations of 30, 10, 3.3, 1.1, 0.37, 0.12, 0.04, 0.01 micromolar. The plates also had both positive and negative controls. The negative control wells contained only AIM-V medium with no example compound. The positive control wells contained a control set of imiquimod serially diluted to concentrations of 30, 10, 3.3, 1.1, 0.37, 0.12, 0.04, 0.01 micromolar. The concentrations used in the control set were selected to match the concentrations used in the testing set. The plates were then cultured at 37° C./5% CO2 for 21-24 hours. Cell-free supernatants were harvested by centrifuging the 96-well plates at 2100 rpm, 23° C. for 10 minutes. Approximately 160 microliters of the supernatant was then stored in a NUNC 96-well plate, covered with the compression cap and stored at −80° C. until the cytokine analysis was done.
IFN-alpha cytokine levels (picograms/mL) were measured by ELISA (human IFN-alpha, pan specific, Mabtech, Cincinnati, Ohio). IFN-gamma and TNF-alpha levels (picograms/mL) were measured by multiplex bead assay (magnetic beads, R & D Systems, Minneapolis, Minn.) according to the manufacturer's instructions.
Specifically, the minimum effective concentration of each compound (micromolar) was determined as the lowest concentration of the compound that induced a measured cytokine response at a level ([…]) that was at least 2× greater than that observed with the negative control wells.

| SMILES | MEC to Induce Cytokine, IFN-alpha [µM] | MEC to Induce Cytokine, IFN-gamma [µM] | MEC to Induce Cytokine, TNF-alpha [µM] |
| --- | --- | --- | --- |
| Nc1nc2ccccc2c2c1ncn2CCc1ccccc1 [Comparative Example 1, 1-phenethyl-1H-imidazo[4,5-c]quinolin-4-amine, reference compound] | 1.1 | >30 | 1.1 |
| C[C@H](Cc1ccccc1)n1cnc2c(N)nc3ccccc3c21 [Example 1, 1-[(1R)-1-methyl-2-phenyl-ethyl]imidazo[4,5-c]quinolin-4-amine] | 0.37 | 1.1 | 0.12 |
| CCCC[C@H](Cc1ccccc1)n1cnc2c(N)nc3ccccc3c21 [Example 2, 1-[(1R)-1-benzylpentyl]imidazo[4,5-c]quinolin-4-amine] | ≤0.01 | ≤0.01 | ≤0.01 |
| COC[C@@H](Cc1ccccc1)n1cnc2c(N)nc3ccccc3c21 [Example 3, 1-[(1R)-1-benzyl-2-methoxy-ethyl]imidazo[4,5-c]quinolin-4-amine] | 1.1 | >30 | 1.1 |
| CCOC[C@@H](Cc1ccccc1)n1cnc2c(N)nc3ccccc3c21 [Example 4, 1-[(1R)-1-benzyl-2-ethoxy-ethyl]imidazo[4,5-c]quinolin-4-amine] | 0.37 | >30 | 0.37 |
| COC[C@H](Cc1ccccc1)n1cnc2c(N)nc3ccccc3c21 [Example 5, 1-[(1S)-1-benzyl-2-methoxy-ethyl]imidazo[4,5-c]quinolin-4-amine] | ≤0.01 | ≤0.01 | ≤0.01 |
| CCOC[C@H](Cc1ccccc1)n1cnc2c(N)nc3ccccc3c21 [Example 6, 1-[(1S)-1-benzyl-2-ethoxy-ethyl]imidazo[4,5-c]quinolin-4-amine] | ≤0.01 | ≤0.01 | ≤0.01 |
| CCCCOc1ccc(C[C@@H](CCCC)n2cnc3c(N)nc4ccccc4c32)cc1 [Example 7, 1-[(1R)-1-[(4-butoxyphenyl)methyl]pentyl]imidazo[4,5-c]quinolin-4-amine] | ≤0.01 | ≤0.01 | ≤0.01 |
